Assay results taken from ChEMBL document CHEMBL2203203, “Structure-activity relationships of 2-arylamido-5,7-dihydro-4H-thieno[2,3-c]pyran-3-carboxamide derivatives as cannabinoid receptor agonists and their analgesic action” (Bioorg Med Chem Lett, 2012).
Calls of active or inactive are those of the source. The rule behind the calls is not given here.

Legend:
Homo sapiens = organism: Homo sapiens; assay: Selectivity ratio of EC50 for human CB1 receptor to EC50 for human CB2 receptor
Cannabinoid receptor 1 [1] = target: T1, Cannabinoid receptor 1 (Homo sapiens, UniProt P21554); assay: Displacement of [3H]-CP55,940 from human CB1 receptor after 60 mins by microscintillation counting analysis
T1 sequence (P21554 whole entry): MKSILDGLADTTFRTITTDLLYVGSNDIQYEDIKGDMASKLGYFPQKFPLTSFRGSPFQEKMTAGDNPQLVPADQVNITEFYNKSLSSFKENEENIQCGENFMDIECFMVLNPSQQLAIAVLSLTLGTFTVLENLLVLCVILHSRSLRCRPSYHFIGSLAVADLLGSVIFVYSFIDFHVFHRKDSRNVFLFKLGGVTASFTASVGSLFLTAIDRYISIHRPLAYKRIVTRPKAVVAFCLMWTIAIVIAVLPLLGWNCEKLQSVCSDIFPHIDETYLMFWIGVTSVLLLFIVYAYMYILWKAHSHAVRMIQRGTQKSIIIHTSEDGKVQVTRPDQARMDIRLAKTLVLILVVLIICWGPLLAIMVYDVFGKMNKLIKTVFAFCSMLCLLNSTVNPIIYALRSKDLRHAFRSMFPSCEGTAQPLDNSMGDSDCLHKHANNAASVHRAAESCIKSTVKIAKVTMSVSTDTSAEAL

[2] = Half life in rat liver microsomes; assay type: ADME, Microsome
Cannabinoid receptor 2 [3] = target: T2, Cannabinoid receptor 2 (Homo sapiens, UniProt P34972); assay: Agonist activity at human CB2 receptor after 4 hrs by luciferase reporter gene assay relative to control; assay type: functional
T2 sequence (P34972 whole entry): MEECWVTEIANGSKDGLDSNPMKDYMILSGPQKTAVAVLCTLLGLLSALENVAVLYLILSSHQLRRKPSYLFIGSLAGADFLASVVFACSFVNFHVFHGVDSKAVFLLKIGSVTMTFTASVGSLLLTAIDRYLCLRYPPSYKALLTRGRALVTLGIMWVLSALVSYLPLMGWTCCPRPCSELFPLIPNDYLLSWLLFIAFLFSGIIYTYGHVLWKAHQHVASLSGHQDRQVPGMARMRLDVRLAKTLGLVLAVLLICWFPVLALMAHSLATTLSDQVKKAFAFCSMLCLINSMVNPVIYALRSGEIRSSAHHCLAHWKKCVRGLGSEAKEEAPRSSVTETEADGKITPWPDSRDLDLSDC

Cannabinoid receptor 1 [4] = target: T1, Cannabinoid receptor 1; assay: Agonist activity at human CB1 receptor after 4 hrs by luciferase reporter gene assay; assay type: functional
Cannabinoid receptor 1 [5] = target: T1, Cannabinoid receptor 1; assay: Agonist activity at human CB1 receptor after 4 hrs by luciferase reporter gene assay relative to control; assay type: functional
Cannabinoid receptor 1 [6] = target: Cannabinoid receptor 1 (Rattus norvegicus, UniProt P20272); assay: Displacement of [3H]-CP55,940 from rat CB1 receptor after 60 mins by microscintillation counting analysis
Chain of Cannabinoid receptor 1 (Rattus norvegicus, UniProt P20272) (P20272 whole entry): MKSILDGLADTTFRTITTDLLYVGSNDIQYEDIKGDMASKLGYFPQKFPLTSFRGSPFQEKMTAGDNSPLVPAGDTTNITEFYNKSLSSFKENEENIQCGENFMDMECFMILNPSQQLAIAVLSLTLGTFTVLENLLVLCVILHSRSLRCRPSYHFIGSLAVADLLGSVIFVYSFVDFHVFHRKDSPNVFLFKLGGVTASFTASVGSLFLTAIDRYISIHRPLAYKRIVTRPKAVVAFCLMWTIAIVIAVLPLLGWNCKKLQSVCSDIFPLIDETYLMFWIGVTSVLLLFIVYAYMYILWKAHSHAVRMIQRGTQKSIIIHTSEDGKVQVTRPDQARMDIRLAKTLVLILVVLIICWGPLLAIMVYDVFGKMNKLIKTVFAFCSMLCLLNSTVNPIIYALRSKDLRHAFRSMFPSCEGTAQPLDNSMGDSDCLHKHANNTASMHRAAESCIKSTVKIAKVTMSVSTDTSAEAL

Cannabinoid receptor 2 [7] = target: T3, Cannabinoid receptor 2 (Rattus norvegicus, UniProt Q9QZN9); assay: Displacement of [3H]-CP55,940 from rat CB2 receptor after 60 mins by microscintillation counting analysis
T3 sequence (Q9QZN9 whole entry): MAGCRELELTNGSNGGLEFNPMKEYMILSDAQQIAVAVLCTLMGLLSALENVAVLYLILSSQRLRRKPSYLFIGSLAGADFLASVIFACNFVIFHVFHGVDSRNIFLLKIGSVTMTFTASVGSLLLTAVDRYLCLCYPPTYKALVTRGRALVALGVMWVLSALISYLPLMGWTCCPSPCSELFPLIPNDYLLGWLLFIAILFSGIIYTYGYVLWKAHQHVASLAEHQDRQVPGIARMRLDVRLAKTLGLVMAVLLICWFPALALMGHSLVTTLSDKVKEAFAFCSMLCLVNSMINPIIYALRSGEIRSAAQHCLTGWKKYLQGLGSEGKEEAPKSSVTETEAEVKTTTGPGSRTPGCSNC

[8] = Half life in mouse liver microsomes; assay type: ADME, Microsome
Cannabinoid receptor 2 [9] = target: T2, Cannabinoid receptor 2; assay: Agonist activity at human CB2 receptor after 4 hrs by luciferase reporter gene assay; assay type: functional
Cannabinoid receptor 2 [10] = target: T2, Cannabinoid receptor 2; assay: Displacement of [3H]-CP55,940 from human CB2 receptor after 60 mins by microscintillation counting analysis
Mus musculus = assay: Analgesic activity in NMRI mouse assessed as inhibition of acetic acid-induced writhing at 30 mg/kg, po measured for 30 mins relative to vehicle-treated control; assay type: functional; conditions: for inhibition in vivo at 30 mg/kg: 0.5 h

SMILES: COCCNC(=O)c1c(NC(=O)c2c(F)cccc2C(F)(F)F)sc2c1CCOC2
- Ratio EC50 (Homo sapiens): 385
- Ki (Cannabinoid receptor 1 [1]): > 30000 nM
- half-life [2]: 13.6 min
- Efficacy (Cannabinoid receptor 2 [3]): 96%
- EC50 (Cannabinoid receptor 1 [4]): 9360 nM
- Efficacy (Cannabinoid receptor 1 [5]): 58%
- Ki (Cannabinoid receptor 1 [6]): > 30000 nM
- Ki (Cannabinoid receptor 2 [7]): 1700 nM
- half-life [8]: 21 min
- EC50 (Cannabinoid receptor 2 [9]): 24 nM
- Ki (Cannabinoid receptor 2 [10]): 904 nM
- inhibition (Mus musculus): inactive

SMILES: O=C(Nc1sc2c(c1C(=O)N1CCCCC1)CCOC2)c1ccccc1C(F)(F)F
- Ratio EC50 (Homo sapiens): 204
- Ki (Cannabinoid receptor 1 [1]): 11700 nM
- half-life [2]: 5.28 min
- Efficacy (Cannabinoid receptor 2 [3]): 99%
- EC50 (Cannabinoid receptor 1 [4]): 607 nM
- Efficacy (Cannabinoid receptor 1 [5]): 93%
- Ki (Cannabinoid receptor 1 [6]): 15100 nM
- Ki (Cannabinoid receptor 2 [7]): 1610 nM
- half-life [8]: 15.5 min
- EC50 (Cannabinoid receptor 2 [9]): 3 nM
- Ki (Cannabinoid receptor 2 [10]): 241 nM
- inhibition in vivo at 30 mg/kg (Mus musculus): 32%

SMILES: O=C(Nc1sc2c(c1C(=O)N1CCCCC1)CCOC2)c1ccccc1OC(F)(F)F
- Ratio EC50 (Homo sapiens): 98
- Ki (Cannabinoid receptor 1 [1]): 19400 nM
- half-life [2]: 3.52 min
- Efficacy (Cannabinoid receptor 2 [3]): 101%
- EC50 (Cannabinoid receptor 1 [4]): 925 nM
- Efficacy (Cannabinoid receptor 1 [5]): 85%
- Ki (Cannabinoid receptor 1 [6]): 22600 nM
- Ki (Cannabinoid receptor 2 [7]): 2130 nM
- half-life [8]: 10 min
- EC50 (Cannabinoid receptor 2 [9]): 9.5 nM
- Ki (Cannabinoid receptor 2 [10]): 347 nM
- inhibition (Mus musculus): inactive

SMILES: COCCNC(=O)c1c(NC(=O)c2ccccc2C(F)(F)F)sc2c1CCOC2
- Ratio EC50 (Homo sapiens): 525
- Ki (Cannabinoid receptor 1 [1]): > 30000 nM
- half-life [2]: 17.8 min
- Efficacy (Cannabinoid receptor 2 [3]): 93%
- EC50 (Cannabinoid receptor 1 [4]): 8710 nM
- Efficacy (Cannabinoid receptor 1 [5]): 45%
- Ki (Cannabinoid receptor 1 [6]): > 30000 nM
- Ki (Cannabinoid receptor 2 [7]): 2540 nM
- half-life [8]: 19.8 min
- EC50 (Cannabinoid receptor 2 [9]): 17 nM
- Ki (Cannabinoid receptor 2 [10]): 999 nM
- inhibition (Mus musculus): inactive

SMILES: O=C(Nc1sc2c(c1C(=O)N1CC(F)(F)C1)CCOC2)c1ccccc1C(F)(F)F
- Ratio EC50 (Homo sapiens): 118
- Ki (Cannabinoid receptor 1 [1]): 7190 nM
- half-life [2]: 8 min
- Efficacy (Cannabinoid receptor 2 [3]): 106%
- EC50 (Cannabinoid receptor 1 [4]): 296 nM
- Efficacy (Cannabinoid receptor 1 [5]): 84%
- Ki (Cannabinoid receptor 1 [6]): > 30000 nM
- Ki (Cannabinoid receptor 2 [7]): 594 nM
- half-life [8]: 37.4 min
- EC50 (Cannabinoid receptor 2 [9]): 2.5 nM
- Ki (Cannabinoid receptor 2 [10]): 81.5 nM
- inhibition in vivo at 30 mg/kg (Mus musculus): 15%

SMILES: O=C(Nc1sc2c(c1C(=O)N1CCOCC1)CCOC2)c1c(Cl)cccc1Cl
- Ratio EC50 (Homo sapiens): 7
- Efficacy (Cannabinoid receptor 2 [3]): 76%
- EC50 (Cannabinoid receptor 1 [4]): 4640 nM
- Efficacy (Cannabinoid receptor 1 [5]): 78%
- EC50 (Cannabinoid receptor 2 [9]): 695 nM

SMILES: CC1OCc2sc(NC(=O)CC(C)(C)C)c(C(=O)N3CC(F)(F)C3)c21 (centres undefined)
- Ratio EC50 (Homo sapiens): 36
- Efficacy (Cannabinoid receptor 2 [3]): 105%
- EC50 (Cannabinoid receptor 1 [4]): 217 nM
- Efficacy (Cannabinoid receptor 1 [5]): 94%
- EC50 (Cannabinoid receptor 2 [9]): 6 nM

SMILES: CC(C)(C)CC(=O)Nc1sc2c(c1C(=O)NCC1CC1)C(C)(C)CC2
- Ratio EC50 (Homo sapiens): 38
- Efficacy (Cannabinoid receptor 2 [3]): 101%
- EC50 (Cannabinoid receptor 1 [4]): 243 nM
- Efficacy (Cannabinoid receptor 1 [5]): 96%
- EC50 (Cannabinoid receptor 2 [9]): 6.4 nM

SMILES: Cc1ccccc1C(=O)Nc1sc2c(c1C(=O)N1CCOCC1)CCOC2
- Ratio EC50 (Homo sapiens): 12
- Efficacy (Cannabinoid receptor 2 [3]): 105%
- EC50 (Cannabinoid receptor 1 [4]): 7450 nM
- Efficacy (Cannabinoid receptor 1 [5]): 97%
- EC50 (Cannabinoid receptor 2 [9]): 646 nM

SMILES: COCCNC(=O)c1c(NC(=O)CC(C)(C)C)sc2c1C(C)(C)CC2
- Ratio EC50 (Homo sapiens): 62
- Efficacy (Cannabinoid receptor 2 [3]): 100%
- EC50 (Cannabinoid receptor 1 [4]): 368 nM
- Efficacy (Cannabinoid receptor 1 [5]): 98%
- EC50 (Cannabinoid receptor 2 [9]): 5.9 nM

SMILES: CC(C)(C)CC(=O)Nc1sc2c(c1C(=O)N1CCC(F)(F)CC1)CCCC2
- Ratio EC50 (Homo sapiens): 24
- Efficacy (Cannabinoid receptor 2 [3]): 82%
- EC50 (Cannabinoid receptor 1 [4]): 113 nM
- Efficacy (Cannabinoid receptor 1 [5]): 86%
- EC50 (Cannabinoid receptor 2 [9]): 4.7 nM

SMILES: COC1CN(C(=O)c2c(NC(=O)c3ccccc3C(F)(F)F)sc3c2CCOC3)C1
- Ratio EC50 (Homo sapiens): 387
- Ki (Cannabinoid receptor 1 [1]): > 30000 nM
- half-life [2]: 50.4 min
- Efficacy (Cannabinoid receptor 2 [3]): 98%
- EC50 (Cannabinoid receptor 1 [4]): 5960 nM
- Efficacy (Cannabinoid receptor 1 [5]): 53%
- Ki (Cannabinoid receptor 1 [6]): > 30000 nM
- Ki (Cannabinoid receptor 2 [7]): 3110 nM
- half-life [8]: 37.3 min
- EC50 (Cannabinoid receptor 2 [9]): 15 nM
- Ki (Cannabinoid receptor 2 [10]): 899 nM
- inhibition in vivo at 30 mg/kg (Mus musculus): 15%

SMILES: COCCNC(=O)c1c(NC(=O)C2CCCC2)sc2c1CCCC2
- Ratio EC50 (Homo sapiens): 113
- Efficacy (Cannabinoid receptor 2 [3]): 81%
- EC50 (Cannabinoid receptor 1 [4]): 8030 nM
- Efficacy (Cannabinoid receptor 1 [5]): 61%
- EC50 (Cannabinoid receptor 2 [9]): 71 nM

SMILES: O=C(Nc1sc2c(c1C(=O)N1CCC(F)(F)CC1)CCOC2)c1ccccc1C(F)(F)F
- Ratio EC50 (Homo sapiens): 57
- Efficacy (Cannabinoid receptor 2 [3]): 99%
- EC50 (Cannabinoid receptor 1 [4]): 80 nM
- Efficacy (Cannabinoid receptor 1 [5]): 90%
- EC50 (Cannabinoid receptor 2 [9]): 1.4 nM

SMILES: O=C(Nc1sc2c(c1C(=O)NCC1CC1)CCOC2)c1ccccc1OC(F)(F)F
- Ratio EC50 (Homo sapiens): 15
- Efficacy (Cannabinoid receptor 2 [3]): 94%
- EC50 (Cannabinoid receptor 1 [4]): 519 nM
- Efficacy (Cannabinoid receptor 1 [5]): 88%
- EC50 (Cannabinoid receptor 2 [9]): 35 nM

SMILES: O=C(CN1CCCCC1)Nc1sc2c(c1C(=O)N1CCC(F)(F)CC1)CCCC2
- Ratio EC50 (Homo sapiens): 126
- Efficacy (Cannabinoid receptor 2 [3]): 104%
- EC50 (Cannabinoid receptor 1 [4]): 3220 nM
- Efficacy (Cannabinoid receptor 1 [5]): 100%
- EC50 (Cannabinoid receptor 2 [9]): 26 nM

SMILES: O=C(Nc1sc2c(c1C(=O)NCC1CC1)CCOC2)c1c(F)cccc1C(F)(F)F
- Ratio EC50 (Homo sapiens): 74
- Efficacy (Cannabinoid receptor 2 [3]): 112%
- EC50 (Cannabinoid receptor 1 [4]): 812 nM
- Efficacy (Cannabinoid receptor 1 [5]): 90%
- EC50 (Cannabinoid receptor 2 [9]): 11 nM

SMILES: COC1CN(C(=O)c2c(NC(=O)c3c(F)cccc3C(F)(F)F)sc3c2CCOC3)C1
- Ratio EC50 (Homo sapiens): 275
- Efficacy (Cannabinoid receptor 2 [3]): 100%
- EC50 (Cannabinoid receptor 1 [4]): 6610 nM
- Efficacy (Cannabinoid receptor 1 [5]): 55%
- EC50 (Cannabinoid receptor 2 [9]): 24 nM

SMILES: CC1(C)CCc2sc(NC(=O)c3ccccc3Cl)c(C(=O)NCC3CC3)c21
- Ratio EC50 (Homo sapiens): 30
- Efficacy (Cannabinoid receptor 2 [3]): 116%
- EC50 (Cannabinoid receptor 1 [4]): 16 nM
- Efficacy (Cannabinoid receptor 1 [5]): 86%
- EC50 (Cannabinoid receptor 2 [9]): 0.55 nM

SMILES: O=C(Nc1sc2c(c1C(=O)N1CC(F)(F)C1)CCOC2)c1ccccc1OC(F)(F)F
- Ratio EC50 (Homo sapiens): 420
- Ki (Cannabinoid receptor 1 [1]): > 30000 nM
- half-life [2]: 6.4 min
- Efficacy (Cannabinoid receptor 2 [3]): 104%
- EC50 (Cannabinoid receptor 1 [4]): 1970 nM
- Efficacy (Cannabinoid receptor 1 [5]): 104%
- Ki (Cannabinoid receptor 1 [6]): > 30000 nM
- Ki (Cannabinoid receptor 2 [7]): 4620 nM
- half-life [8]: 25.5 min
- EC50 (Cannabinoid receptor 2 [9]): 4.7 nM
- Ki (Cannabinoid receptor 2 [10]): 240 nM
- inhibition (Mus musculus): inactive
